According to paper PMC10820479, “An Improved In Vitro Blood-Brain Barrier Model for the Evaluation of Drug Permeability Using Transwell with Shear Stress” (Pharmaceutics, 2023):
Structures can show the parent of a compound that is named as a salt. Where two headings read alike, the source gives them in different places.

Columns and labels:
[1] = test system: in vitro AS BBB model (hCMEC/D3 co-cultured with U87MG); experiment: Permeability test in the optimized annular shaking dish (AS) BBB model; conditions: optimized AS BBB model
Experimental: (§1) The culture inserts (Costar®, Washington, DC, USA, 6.5 mm diameter) of polycarbonate (PC) and polyester (PET) membrane were procured from Corning Inc. (Corning, NY, USA). […] After washing twice with PBS, the cells were seeded at a density of 1 × 10^5 hCMEC/D3 cells/well in the apical chamber and 3 × 10^4 U87MG cells/well on the basolateral side of the insert. The cultivation method was modified from that described in the literature. Briefly, the insert was inverted, and U87MG cells were initially seeded. The insert was flipped 3–4 h after seeding the U87MG cells. Subsequently, hCMEC/D3 cells were seeded 1 day later.
(§2) To prevent nonspecific binding, all compounds were pre-incubated for 30 min prior to the permeability study. The samples were collected at 0 min from the donor and at 30, 60, and 90 min from the acceptor and immediately replaced with a new transport buffer. Incubation was carried out in a humidified 5% CO2 environment at 37 °C with shaking at 100 rpm.
(§3) After culturing the cells in culture inserts, as described in Section 2.3, they were transferred to the AS prepared on day 3, and cultivation was carried out with orbital shaking at 150 rpm until day 17 (Figure 1b). The cultivated AS BBB model was employed to investigate the effects of the AS size, as well as the influence of FBS and ITS.
(§4) Chromatographic separations were performed on Agilent Poroshell 120 EC-C18 (3.0 × 50 mm, 2.7 µm; Agilent Technologies, Inc., Santa Clara, CA, USA) and YMC triart C18 (2.0 × 50 mm, 3 µm; YMC Co., Ltd., Kyoto, Japan) columns using 5 mM ammonium formate in water (pH 4) and methanol.
(§5) The optimized AS BBB model was evaluated as follows.

[2] = as above; conditions: human
Experimental: as §1, §2, §3, §4, §5

P-gp = experiment: Efflux transporter inhibition assay, P-gp, AS BBB model; type: in vitro ADME; conditions: human, optimized AS BBB model
Experimental: A modified method from a previously published paper was used for the inhibition assay. […] The bidirectional permeability of substrates was evaluated by measuring changes in Papp and the efflux ratio for both the inhibitor- and vehicle-treated groups. The concentration of dantrolene was determined using liquid chromatography with tandem mass spectrometry (LC-MS/MS).

P-glycoprotein (P-gp) = experiment: Rhodamine 123 efflux (bidirectional permeability, P-gp activity); conditions: for efflux ratio: 10 μM; for efflux ratio at 90 min, 10 μM: human, not told
Experimental: Bidirectional permeability tests were performed at time points of 0, 30, 60, and 90 min with shaking at 100 rpm. Each sample was measured at 480 nm/530 nm (excitation/emission wavelengths) using the VICTOR® Nivo multimode plate reader. The apparent permeability coefficient (Papp) was determined using Equation (2):Papp (cm/s) = dQ/dt × 1/(A × C0)(2) where: • A is the surface area of the insert filter membrane (cm^2) • C0 is the initial concentration in the donor solution (μM) • dQ/dt is the amount of the drug transported within a given time period (pmol/s)

[3] = monkey; unbound plasma-CSF partition coefficient; cited from earlier work
[4] = test system: hCMEC/D3 cell layer on transwell inserts; experiment: Lucifer yellow (LY) diffusion, cell layer integrity; conditions: AS BBB model (discussion)
[5] = rat; unbound plasma-CSF partition coefficient; cited from earlier work

Compound: COC(=O)c1ccccc1-c1c2ccc(=N)cc-2oc2cc(N)ccc12 [Rhodamine123, rhodamine 123]
- permeability (in words) [1]: low
- Papp at 90 min, 20 μM [2]: 0.67 ± 0.14 ×10⁻⁶ cm/s
- efflux ratio at 10 μM (P-gp; with cyclosporin A 10 μM, with P-gp inhibitor cyclosporin A 10 μM): 1.6 ± 0.13
- efflux ratio at 10 μM (P-gp; without inhibitor, 10 μM): 4.2 ± 0.15
- efflux ratio (P-glycoprotein (P-gp); 15 cm AS group): exceeding two
- efflux ratio (P-glycoprotein (P-gp); 15 cm AS, 5% FBS + ITS): 4.04 ± 0.04
- efflux ratio at 90 min, 10 μM (P-glycoprotein (P-gp); 15 cm AS, 2% FBS + ITS): 6.73 ± 0.94
- efflux ratio at 90 min, 10 μM (P-glycoprotein (P-gp); 15 cm AS, 5% FBS): 2.4 ± 0.05
- efflux ratio at 90 min, 10 μM (P-glycoprotein (P-gp); 15 cm AS, 5% FBS + ITS): 4 ± 0.04

Compound: CC(C)NCC(O)COc1cccc2ccccc12 (stereo not shown) [Propranolol, propranolol HCl]
- Papp at 90 min, 20 μM [2]: 24.6 ± 4.5 ×10⁻⁶ cm/s

Compound: NC(=O)N1c2ccccc2C=Cc2ccccc21 [Carbamazepine, carbamazepine]
- permeability (in words) [1]: high permeability
- Papp at 90 min, 20 μM [2]: 29 ± 4.4 ×10⁻⁶ cm/s
- Kp,uu,CSF [3]: 0.979 (monkey) ^3

Compound: lucifer yellow CH dipotassium salt [LY]
- transport of LY through the paracellular pathway [4]: less than 1%

Compound: CCN1CCCC1CNC(=O)c1cc(S(N)(=O)=O)ccc1OC (stereo not shown) [Sulpiride, sulpiride]
- Papp at 90 min, 20 μM [2]: 10.2 ± 0.82 ×10⁻⁶ cm/s
- Kp,uu,CSF [5]: 0.049 (rat) ^2

Compound: Cc1ncc2n1-c1ccc(Cl)cc1C(c1ccccc1F)=NC2 [Midazolam]
- Papp [2]: 41.5 ± 2.8 ×10⁻⁶ cm/s
- Kp,uu,CSF [5]: 1.35 (rat) ^2

Compound: O=C1NC(=O)C(c2ccccc2)(c2ccccc2)N1 [Phenytoin, phenytoin sodium]
- Papp at 90 min, 20 μM [2]: 21.8 ± 1.2 ×10⁻⁶ cm/s
